# Test results as given in patent publication US5494907A, “11-β substituted-19-nor steroids” (Roussel UCLAF, priority 1993, dated 1996).
# Molecular target: T1, hPR (recombinant human progesterone receptor) (Homo sapiens, UniProt P06401)
# T1 construct: made in house; host or cells: SF9 insect cells (ATCC CRL1711), recombinant baculovirus (BaculoGold Transfection Kit, PharMingen 21000K)
# T1 sequence (P06401 1-933): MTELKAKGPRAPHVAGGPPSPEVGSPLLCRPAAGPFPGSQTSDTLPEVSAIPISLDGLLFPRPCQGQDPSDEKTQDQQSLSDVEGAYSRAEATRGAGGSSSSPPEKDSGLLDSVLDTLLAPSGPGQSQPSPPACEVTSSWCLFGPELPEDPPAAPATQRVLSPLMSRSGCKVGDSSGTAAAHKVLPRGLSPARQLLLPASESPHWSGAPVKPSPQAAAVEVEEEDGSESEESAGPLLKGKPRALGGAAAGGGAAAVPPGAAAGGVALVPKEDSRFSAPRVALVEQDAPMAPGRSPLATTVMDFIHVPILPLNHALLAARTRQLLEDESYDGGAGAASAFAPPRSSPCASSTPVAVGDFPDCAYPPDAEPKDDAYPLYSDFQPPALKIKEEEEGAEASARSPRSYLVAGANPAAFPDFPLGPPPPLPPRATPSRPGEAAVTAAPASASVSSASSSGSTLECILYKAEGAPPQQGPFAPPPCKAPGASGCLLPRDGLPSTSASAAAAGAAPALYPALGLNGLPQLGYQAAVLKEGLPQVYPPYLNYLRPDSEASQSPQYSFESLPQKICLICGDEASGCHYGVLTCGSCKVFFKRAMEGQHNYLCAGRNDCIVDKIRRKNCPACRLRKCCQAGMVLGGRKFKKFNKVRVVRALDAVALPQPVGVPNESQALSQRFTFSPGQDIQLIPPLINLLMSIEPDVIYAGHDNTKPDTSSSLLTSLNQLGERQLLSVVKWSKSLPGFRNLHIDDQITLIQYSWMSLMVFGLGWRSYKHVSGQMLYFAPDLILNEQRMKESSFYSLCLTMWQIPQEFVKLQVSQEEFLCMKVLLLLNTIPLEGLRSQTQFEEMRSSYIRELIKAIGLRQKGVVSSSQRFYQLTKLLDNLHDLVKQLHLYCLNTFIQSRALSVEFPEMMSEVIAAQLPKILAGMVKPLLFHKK
# Assay: Relative bond affinity (RBA) on recombinant human progesterone receptor, displacement of tritiated 17α,21-dimethyl-19-nor-Δ4,9-pregnadien-3,20-dione
# Assay type: binding
# Details: for RBA hPR: Progesterone = 100, 0° C., 24 hours; for affinity for the progesterone receptor (in words): conclusion in words
# Excerpt: 1--Activity on the hormonal receptors using either the natural hormonal receptor of a rat (AR), or the recombinant human receptor (PR, GR and ER).
# Human progesterone receptor
# The recombinant human progesterone receptor was obtained by superexpression in an insect-Baculovirus cell system by methodology described by WEBB et al. in Journal of Methods in Cell and Molecular Biology, (1990), Vol. 2 N° 4, pp. 173-188 and whose use is described for the expression of human hormonal receptors, for example the human glucocorticoid receptor (SRINIVASAN et al. Molecular Endocrinology, (1990), Vol. 4 N° 2, pp. 209-216).
# The BaculoGold Transfection Kit was used (PharMingen, reference 21000K) to insert the cDNA fragment described by KASTNER et al. (The EMBO Journal, (1990), Vol. 9 N° 5, pp. 1603-1614), containing the region coding for the human progesterone receptor and to prepare the corresponding recombinant virus. The recombinant virus was used to express the progesterone receptor in SF9 insect cells (ATCC CRL1711), by the known methodology mentioned previously.
# 2×10^7 to 2.5×10^7 SF9 cells were cultivated in a […] "Falcon" flask in a TNM-FH "SIGMA" medium supplemented with 10% of foetal calf serum (FCS) and with 50 micrograms/ml of gentamycin. After infection, then incubation at 27° C. for 40 to 42 hours, the cells were lysed in 1 ml of lysis buffer (1) by a freezing-defrosting cycle which was repeated twice more. The supernatant containing the recombinant human progesterone receptor was kept in liquid nitrogen in doses of 1 ml. The supernatant was diluted at the time of use according to a dilution range varying from 1/10th to 1/100th with 10 mM Tris, 0.25 M saccharose, HCl buffer at pH 7.4 containing 0.1% gelatin and then was incubated at 0° C. for 24 hours with a constant concentration (T) of tritiated 17α,21-dimethyl-19-nor-Δ4,9-pregnadien-3,20-dione in the presence of increasing concentrations either of unlabelled progesterone (0-2500×10^-9 M), or of unlabelled product under test (1 to 25000×10^-9 M). The concentration of bound tritiated 17,21-dimethyl 19-nor-Δ4,9-[…] (B) was then measured in each incubate by the technique of adsorption with carbon dextran.
# Calculation of the relative bond affinity (RBA).
# The following 2 curves were traced: percentage of bound tritiated hormone B/BO as a function of the logarithm of the concentration of unlabelled reference hormone or as a function of the logarithm of the concentration of the unlabelled product under test.
# The straight line of the following equation was determined:
# BO=Concentration of bound tritiated hormone in the absence of any unlabelled product,
# B=Concentration of bound tritiated hormone in the presence of a concentration X of unlabelled product,
# B min=Concentration of bound tritiated hormone in the presence of a large excess of cold reference hormone (500 nM). The intersections of the straight line I50 and the curves allowed the evaluation of the concentrations of unlabelled reference hormone (CH) and of the unlabelled product under test (CX) which inhibited by 50% the specific binding of the tritiated hormone on the receptor.
# The relative bond affinity (RBA) of the product under test was determined by the equation:
# The RBA's of the reference products estradiol, progesterone, dexamethasone and testosterone were arbitrarily taken to be equal to 100.
Compound,RBA hPR,affinity for the progesterone receptor (in words)
"CN(CC(F)(F)C(F)(F)C(F)(F)F)S(=O)(=O)CCCCCOc1ccc([C@H]2C[C@]3(C)[C@@H](O)CC[C@H]3[C@@H]3CCc4cc(O)ccc4[C@H]32)cc1 [Example 8, 5-[4-(Δ1,3,5(10)-estratrien-3,17β-diol-11βyl)-Phenoxy]-N-(2,2,3,3,4,4,4-heptafluorobutyl)-N-methyl-pentanesulfonamide]",55,marked affinity
"CCCCN(C)S(=O)(=O)CCCCCOc1ccc([C@H]2C[C@]3(C)[C@@H](O)CC[C@H]3[C@@H]3CCc4cc(O)ccc4[C@H]32)cc1 [Example 7, N-butyl-5-[4-(Δ1,3,5(10)-estratrien-3,17β-diol-11β-yl)phenoxy]-N-methyl-pentanesulfonamide]",111,marked affinity
"CCCCNS(=O)(=O)CCCCCOc1ccc([C@H]2C[C@]3(C)[C@@H](O)CC[C@H]3[C@@H]3CCc4cc(O)ccc4[C@H]32)cc1 [Example 2, N-butyl-5-[4-(Δ1,3,5(10)-estratrien-3,17β-diol-11β-yl)phenoxy]-pentanesulfonamide]",37,marked affinity
